Data from US20040044087A1, “Use of hop acids in fuel ethanol production” (priority 1999, published 2004).

Tests used:
Lb. fermentum [1] = test: Wheat mash fermentation contaminated with Lb. fermentum; assay type: cell-based, Lactobacillus fermentum; conditions: Example 5, inoculated 10^7 CFU/mL; Penicillin G 0.25 ppm, Virginiamycin 0.5 ppm, hop products at effective concentration
Description: The clean breed strains were kept frozen at −101.2° F. in MRS-broth containing 8%-glycerol and were inoculated from there in 10 mL cap tubes containing 2 mL MRS-broth. The headspace of each tube was flushed with filter sterilized (0.45 μm pore size membrane filter) CO2-gas and the caps were sealed with paraffin wax coated film. The tubes were incubated in a controlled environmental shaker at 100 rpm at 86° F. (Lb. brevis) and 96.8° F. (Lb. fermentum). After 12 hours 1 mL of these preparatory cultures were each transferred into 10 mL cap tubes containing 9 mL MRS-broth and incubated for another 24 hours, afterwards transferred to 100 mL screw cap flasks containing 90 mL of MRS-broth and again incubated at the appropriate temperature for 24 hours. These portions were transferred to 1 L screw cap flasks, containing 750 mL MRS-broth and were again incubated for 24 hours.
For inoculation of wheat mash the bacterial cells were aseptically harvested in sterile centrifugal tubes by centrifugation at 10,200×g for 15 minutes at 4° C. […]
Cell numbers of the organisms were estimated using a Beck photometer. […] Appropriate quantities of the concentrated cell suspension were added to 500 g quantities of wheat mash in laboratory fermentation flasks to give initial viable cell numbers of 10^7 CFU/mL. […]

[2] = below pH 5; cited from earlier work
Lb. brevis = test: Sugar beet molasses wort fermentation contaminated with Lb. brevis; assay type: cell-based, Lactobacillus brevis; conditions: 10^6 CFU/mL, Virginiamycin 0.5 ppm
Description: (§1) The clean breed strains were kept frozen at −101.2° F. in MRS-broth containing 8%-glycerol and were inoculated from there in 10 mL cap tubes containing 2 mL MRS-broth. The headspace of each tube was flushed with filter sterilized (0.45 μm pore size membrane filter) CO2-gas and the caps were sealed with paraffin wax coated film. The tubes were incubated in a controlled environmental shaker at 100 rpm at 86° F. (Lb. brevis) respectively 96.8° F. (Lb. fermentum). […] A filter sterilized (0.45 μm pore size membrane filter) 5 μl aliquot of the MRS-cell suspension for inoculation was determined by high performance liquid chromatography using a ProntoSIL 120-3-C18 AQ column which analyzes sugars, organic acids and alcohol, making sure glucose in the MRS-medium would be totally consumed and determining the amount of lactic acid an acetic acid added to fresh wort. Appropriate quantities of cell suspension were added to give a total of 500 g mash in laboratory fermentation flasks and initial viable bacterial cell numbers of 10^6 CFU/mL mash. The pH-value of the wort was afterwards readjusted to pH 5.2 if necessary. […]
(§2) The content of sucrose in beet molasses was determined by polarimeter after clarification with lead acetate. […]

lactobacillus = conditions: stated as fact for comparison with ISOHOP; cited from earlier work
Lb. fermentum [3] = test: Sugar beet molasses wort fermentation contaminated with Lb. fermentum; assay type: cell-based, Lactobacillus fermentum; conditions: 10^6 CFU/mL, Virginiamycin 0.5 ppm
Description: as §1, §2

In the case of `CC1(C)S[C@@H]2[C@H](NC(=O)Cc3ccccc3)C(=O)N2[C@H]1C(=O)O` [Penicillin G], the “viable cells after fermentation, Lb. fermentum” value (shortened to “viable cells … Lb. fermentum”) (Lb. fermentum [1]) is listed as “practically no effect” and the stability [2] is listed as “rather poor stability”.
In the case of Virginiamycin, the “viable cells after fermentation, Lb. brevis” value (Lb. brevis) is given as “no viable cells”, the “reduction of bacteria count” value (lactobacillus) is given as 50% and the “viable cells … Lb. fermentum” value (Lb. fermentum [1]) is given as 10^3 cells/mL. For the same compound, the “viable cells … Lb. fermentum” value (Lb. fermentum [3]) was “no viable cells”.
